This assay concerns 889142-216-R-J1-PDC complex spheroid viability. Put plainly: Anticancer human tumor 889142-216-R-J1-PDC patient-derived bladder carcinoma cell line growth inhibition [POLQ]. The settings on record: for viability, T/C: stronger effect = lower value. How it is done: Multicellular complex tumor spheroid response to Polymerase (POL) inhibitors (novobiocin, ART-558, RP6685) in combination with a variety of drugs and investigational agents in selected tumor cell lines
The POL inhibitors (novobiocin, ART-558, and RP6685) were evaluated both individually and in combination with standard of care and investigational anticancer small molecules within a complex spheroid model of solid tumors. . Complex spheroids include a stromal component modeled by human endothelial cells (HUVEC) and fibroblasts modeled by human mesenchymal stem cells (MSCs). The concentration ranges selected for each drug and investigational agent were based upon clinically achievable concentrations if the clinical Cmax of the agent was known.
Compounds. The drugs and investigational agents: novobiocin (NSC847541), ART-558 (NSC835418), RP-6685 (NSC848927), peposertib (NSC802822), ceralasertib (NSC780249), elimusertib (NSC800525), camonsertib (NSC841442), AZD-1390 (NSC803789), olaparib (NSC753686), talazoparib (NSC767125), rucaparib (NSC756644), sotorasib (NSC818433), MRTX-1133 (NSC836407), SN-38 (NSC673596), topotecan (NSC609699), epotoside (NSC141540), doxorubicin (NSC123127), gemcitabine (NSC613327), 5-fluorouracil (NSC19893), paclitaxel (NSC125973), vemurafenib (NSC761431), MSA-2 (NSC828583), SN-011 (NSC837082), adavosertib (NSC754352), prexasertib (NSC758257), carboplatin (NSC241240) and oxaliplatin (NSC266046), were obtained from the National Cancer Institute (NCI) Developmental Therapeutics Program Chemical Repository (21). The FDA-approved anticancer drug set is available from the Developmental Therapeutics Program at https://dtp.cancer.gov/organization/dscb/obtaining/. […] The stock solutions were prepared in dimethyl sulfoxide (DMSO, Sigma-Aldrich, St. Louis, MO, cat. D2650), except for the platinum compounds which were prepared in saline (Quality Biological, Gaithersburg, MD, cat. 114-055-101), at 800-fold the tested concentration and stored at -70 degrees C prior to their use. All drugs and investigational agents were tested over a range starting from a high concentration at or near the clinical Cmax and decreasing in half-log increments. If the clinical Cmax for an agent had not been determined, the highest concentration tested was 10 microM, except for SN-38, which was tested at a high concentration of 1 microM.
Cell Culture. All cells were maintained in an incubator at 37 degrees C and 5% CO2 with 95% humidity. The PDC lines were cultured according to standard operating procedures established by the NCI PDMR (https://pdmr.cancer.gov). Table 3 of the manuscript, lists the cell lines along with the number of the three cell types plated to form the mct-spheroids and media for tumor cell growth. After thawing, all PDC lines, except 997537-175-T-J1-PDC and 415267-285-R-J2-PDC, were cultured in Matrigel-coated flasks prepared with a working solution of 1X Ham's F-12 nutrient mix, without supplementation (Thermo Fisher Scientific, cat. 11765054), 100 U/mL penicillin-streptomycin (Thermo Fisher Scientific, cat. 15140122), and 2.5% Matrigel (Corning Inc., Corning, NY, cat. 354248) for the first three passages. The two PDC lines 997537-175-T-J1-PDC and 415267-285-R-J2-PDC were cultured on uncoated flasks. The 857933-349-R-J2-PDC line was cultured in 6C/Colon 1B media containing advanced DMEM/F-12 (Thermo Fisher Scientific, cat. 12634028), 10 mM HEPES (Thermo Fisher Scientific, cat. 15630080), 1X GlutaMAX supplement (Thermo Fisher Scientific, cat. 35050061), 0.1 mg/mL primocin (InvivoGen, San Diego, CA, cat. ant-pm-2), 10% defined fetal bovine serum, heat inactivated (HyClone Laboratories Inc., Logan, UT, cat. SH30070.03HI), 50% L-WRN conditioned media (ATCC, cat. CRL-3276), 1.25 mM N-Acetyl-L-cysteine (Sigma-Aldrich, cat. A9165), 10 mM nicotinamide (Sigma-Aldrich, cat. N0636), 1X B-27 supplement (Thermo Fisher Scientific, cat. 17504044), 1X N-2 supplement (Thermo Fisher Scientific, cat. […]

Molecules are shown by their SMILES. “And” between values parts separate entries of the source, which are not always exact repeats. Identical values can stand only once.
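Note: spheroids exposed to compounds for seven days.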

One may read the viability, T/C as the result in the treated group divided by that in the control group, in per cent. The IC50 is the concentration at which inhibition is half-maximal. Regarding `CNCc1ccc(-c2[nH]c3cc(F)cc4c3c2CCNC4=O)cc1`, the viability, T/C is, setting by setting: (compound 0.0316 µM) 113% and 99.8% and 88.3%; (compound 0.1 µM) 91.7% and 96.3% and 114%; (compound 0.316 µM) 86% and 112% and 90.9%; (compound 1 µM) 88% and 96.9% and 104%; (compound 3.16 µM) 87.2% and 83.7% and 97.5%; (compound 10 µM) 76.9% and 70.9% and 70.5%. Also, under “curve of compound”, the IC50 was over 10000 nM.
As to `COC1C(OC(N)=O)C(O)C(Oc2ccc3c(O)c(NC(=O)c4ccc(O)c(CC=C(C)C)c4)c(=O)oc3c2C)OC1(C)C` (stereo not drawn), the viability, T/C was 109% [middle of 12 runs] (compound 0.0316 µM) and 94.6% [middle of 12 runs] (compound 0.316 µM). In addition, the IC50 (compound alone, run of 01/08/2024) is over 10000 nM.
As to `COc1cc(C2c3cc4c(cc3C(OC3OC5COC(C)OC5C(O)C3O)C3COC(=O)C23)OCO4)cc(OC)c1O` (stereo not drawn), the viability, T/C (compound 0.0316 µM) was 93.9% and 87.6% and 89.9%; the viability, T/C (compound 0.1 µM) was 82.4% and 88.4% and 76.9%; the viability, T/C (compound 0.316 µM) is 77.6% and 73% and 63.3%; the viability, T/C (compound 1 µM) was 58.1% and 80.3% and 53.2%; the viability, T/C (compound 3.16 µM) was 63.4% and 68.3% and 65.3%; the viability, T/C (compound 10 µM) was 54.3% and 62.4% and 58.1%. In addition, the concentration for half-maximal inhibition (IC50) (curve of compound) was over 10000 nM.
Consider `COc1cc2cc(C(=O)CCC(=O)O)sc2cc1OC`, for which the viability, T/C runs as follows: (compound 0.0316 µM) 105% and 116% and 128%; (compound 0.1 µM) 140% and 92% and 89.7%; (compound 0.316 µM) 89.4% and 92.1% and 94.9%; (compound 1 µM) 115% and 88.4% and 103%; (compound 3.16 µM) 79.9% and 80.8% and 98%; (compound 10 µM) 67.3% and 72.8% and 95.3%. Further, the 50% inhibitory concentration (IC50) (curve of compound) was over 10000 nM.
Consider `COc1ccc([C@@H](O)c2cc(-c3ncnc4cc(N5CCOCC5)ccc34)c(F)cc2Cl)nn1`, for which the viability, T/C runs as follows: (compound 0.0316 µM) 102% and 95.6% and 99.4%; (compound 0.1 µM) 109% and 88.8% and 107%; (compound 0.316 µM) 71.6% and 95% and 74.9%; (compound 1 µM) 57.8% and 63.2% and 70.5%; (compound 3.16 µM) 54.7% and 51.1% and 55.4%; (compound 10 µM) 38.2% and 43.1% and 35.9%. Besides, the concentration for half-maximal inhibition (IC50) (curve of compound) was > 10000 nM and 2580 nM and 3900 nM.
With `COc1cccc(OCCCN)c1-c1cc(Nc2cnc(C#N)cn2)n[nH]1`, the viability, T/C (compound 0.00316 µM) is 93.9% and 84.5% and 84.6%; the viability, T/C (compound 0.01 µM) is 53.2% and 89.7% and 71.7%; the viability, T/C (compound 0.0316 µM) is 42.5% and 62.6% and 50.3%; the viability, T/C (compound 0.1 µM) is 34.7% and 51.5% and 47.2%; the viability, T/C (compound 0.316 µM) is 37.9% and 47.7% and 42.3%; the viability, T/C (compound 1 µM) was 34.4% and 42.8% and 40.6%. The concentration for half-maximal inhibition (IC50) (curve of compound) was 14.1 nM and 81.8 nM and 41 nM.
Turning to `COc1cccc2c1C(=O)c1c(O)c3c(c(O)c1C2=O)CC(O)(C(=O)CO)CC3OC1CC(N)C(O)C(C)O1` (stereo not drawn), the viability, T/C is, setting by setting: (compound 0.0316 µM) 59.4% and 71.1% and 60.1%; (compound 0.1 µM) 61.1% and 79% and 56.2%; (compound 0.316 µM) 46.8% and 46.4% and 36.7%; (compound 1 µM) 2.75% and 11.6% and 1.69%; (compound 3.16 µM) 0.71% and 1.11% and 0.66%; (compound 10 µM) 1% and 1.39% and 1.05%. The concentration for half-maximal inhibition (IC50) (curve of compound) is 241 nM and 290 nM and 153 nM.
In the case of `Cn1ncnc1[C@H]1c2n[nH]c(=O)c3cc(F)cc(c23)N[C@@H]1c1ccc(F)cc1`, the viability, T/C reads like this: (compound 0.000316 µM) 116% and 120% and 92.5%; (compound 0.001 µM) 81.2% and 90.7% and 78%; (compound 0.00316 µM) 84.9% and 99.1% and 83.2%; (compound 0.01 µM) 93.2% and 89.5% and 78.9%; (compound 0.0316 µM) 87.3% and 104% and 84.8%; (compound 0.1 µM) 76.4% and 64.8% and 72.8%. For the setting “curve of compound”, the IC50 was over 100 nM.
Regarding `Nc1ccn(C2OC(CO)C(O)C2(F)F)c(=O)n1` (stereo not drawn), the viability, T/C by setting is: (compound 0.0316 µM) 62.2% and 68.3% and 56.9%; (compound 0.1 µM) 47% and 40.3% and 54.1%; (compound 0.316 µM) 44.5% and 47.4% and 45%; (compound 1 µM) 44.4% and 48% and 49%; (compound 3.16 µM) 44.2% and 42.1% and 40.3%; (compound 10 µM) 37.1% and 38.8% and 31.7%. The IC50 (curve of compound) was 86.1 nM and 73.7 nM and 318 nM.
On to `O=C(c1cc(Cc2n[nH]c(=O)c3ccccc23)ccc1F)N1CCN(C(=O)C2CC2)CC1`, for which the viability, T/C runs as follows: (compound 0.0316 µM) 99.2% and 94.9% and 95.6%; (compound 0.1 µM) 83.3% and 99.5% and 98.7%; (compound 0.316 µM) 101% and 83.8% and 88.6%; (compound 1 µM) 81.2% and 111% and 91.4%; (compound 3.16 µM) 83.2% and 97.8% and 72.5%; (compound 10 µM) 60.4% and 69.9% and 69%. For the setting “curve of compound”, the IC50 is over 10000 nM.
Take `O=c1[nH]cc(F)c(=O)[nH]1`: the viability, T/C runs as follows: (compound 0.0316 µM) 97% and 89.8% and 113%; (compound 0.1 µM) 93.8% and 95.1% and 88.7%; (compound 0.316 µM) 106% and 83.7% and 94.8%; (compound 1 µM) 94.5% and 79.1% and 72.9%; (compound 3.16 µM) 76.2% and 61.7% and 80.9%; (compound 10 µM) 67.3% and 59.5% and 77.3%. In addition, the 50% inhibitory concentration (IC50) (curve of compound) was over 10000 nM.

(Values after PubChem BioAssay AID1963831 (Molecular Pharmacology Branch, DTP, NCI, 2024).)
